The values below come from patent US20160045529A1, “Pharmaceutical Compositions Containing Palmitoylethanolamide And Cytidine-Diphosphocholine And Methods Of Treatment Therewith” (EPITECH GROUP S.R.L., priority 2014, published 2016).

The test system of assay [1] is middle cerebral artery occlusion in rats. Nature of the assay: Middle cerebral artery occlusion by ligation in rats, infarction area. The conditions noted are these: MCAo, suspended in CMC 1.5%; for % Infarction Area: Only CMC = 100.00; for Infarction Area in mm^2: Only CMC control 38.5. Type of assay: in vivo. From the text:
Brain Res. 2012 Oct 5;1477:45-58]. Using such a method the maximum ineffective dose of the two substances, ultramicronized palmitoylethanolamide and cytidinediphosphocholine, administered separately orally suspended in carboxymethyl cellulose at 1.5% was initially sought. In the maximum ineffective doses found, the two substances were then mixed and administered together again suspended in CMC at 1.5%. The results obtained are collected in the following table 1 and the data of the synergic association between PEA and Citicoline are presented in FIGS. 1A-1B and FIGS. 2A-2B. FIGS. 1A-1B show images of coronal sections after occlusion of the middle cerebral artery (MCAo) in the absence (FIG. 1A), or in the presence of the combined treatment described above (FIG. 1B). FIG. 2 highlights the detected measurements of the infarctual area (FIG. 2A) and volume (FIG. 2B) in the absence or in the presence of the treatment.

Assay [2] relates to stroke model from ligation of the middle cerebral artery. The conditions noted are these: preclinical, optimal dose of 10 mg/kg; cited from earlier work.
In another assay the test system is cranial trauma model. The conditions noted are these: preclinical, optimal dose of 10 mg/kg; cited from earlier work.
Assay [3] deals with dementia from damage due to beta amyloid. The conditions noted are these: preclinical, optimal dose of 10 mg/kg; cited from earlier work.

As for `C[N+](C)(C)CCOP(=O)(O)OP(=O)([O-])OC[C@H]1O[C@@H](n2ccc(N)nc2=O)[C@H](O)[C@@H]1O` [Citicoline, Cytidine-diphosphocholine], in assay [1] (50 mg/kg orally), the “% Infarction Area” value is 99.48% and the “Infarction Area in mm^2” value is 38.3 mm^2.

In the case of `CCCCCCCCCCCCCCCC(=O)NCCO` [PEA-um, palmitoylethanolamide], in assay [1] (1 mg/kg orally), the “% Infarction Area” value was determined as 99.22% and the “Infarction Area in mm^2” value stood at 38.2 mm^2.

As to `CCCCCCCCCCCCCCCC(=O)NCCO` [palmitoylethanolamide], in assay [2], the “effect in the stroke model” value is “substantial effect”. In the assay on cranial trauma model, the “effect in the cranial trauma model” value is “substantial effect”. Besides, the “effect in the model of dementia from damage due to beta amyloid” value in assay [3] is “substantial effect”.
